Values joined by “and” are separate entries in the source; they are usually repeats but may differ in a detail not shown here. Identical values can stand only once.
How the values were obtained:
[1] = Stability of formulated radioligand in PBS (analytical radio-HPLC); assay type: physicochemical
Method: The radiochemical purity, identity, and stability of ^18F-AZD9272 was determined by using an analytical HPLC system which included a ACE RP column (C18, 3.9 Ø × 250 mm, 5 μm particle size), Merck-Hitatchi L-7100 Pump, L-7400 UV detector, and GM tube for radioactivity detection (VWR International). The mobile phase CH3CN/0.1% TFA with a gradient HPLC method (10–90% in 8 min) and flow rate of 3 mL/min was used to elute the product. The effluent was monitored with a UV absorbance detector (λ = 270 nm) coupled to a radioactive detector (b-flow, Beckman, Fullerton, CA). The retention time (Rt) of ^18F-AZD9272 was 4–5 min. The identity of ^18F-AZD9272 was confirmed by using HPLC with the coinjection of the authentic nonradioactive AZD9272 (3-fluoro-5-(3-(5-fluoropyridin-2-yl)-1,2,4-oxadiazol-5-yl)benzonitrile) standard.

[2] = Whole body PET and radiation dosimetry (OLINDA/EXM 1.1); assay type: in vivo, cynomolgus monkey; conditions: for Estimated radiation dose: human estimate, adult male model
Method: Two female cynomolgus monkeys (NHP3: 7420 g and NHP4: 6360 g) were used in this study. Anesthesia was induced by intramuscular injection of ketamine hydrochloride (approximately 10 mg/kg) at AFL and maintained by intravenous infusion of ketamine (4 mg/kg/h) and xylazine (0.4 mg/kg/h) with a pump. The body of the NHP was immobilized using a vacuum pad. Body temperature was maintained by using a Bair Hugger system (model 505, Arizant Healthcare, MN) and monitored with an esophageal thermometer. Heart rate, blood pressure, respiratory rate, and oxygen saturation were continuously monitored throughout the experiments. Fluid balance was maintained by continuous infusion of saline.
Whole-body PET scans were conducted using a GE Discovery PET/CT 710 system (GE Healthcare, Waukesha, WI). One low-dose CT scan was performed before intravenous administration of ^18F-AZD9272 for attenuation correction. Then five series of PET acquisitions, each covering five axial fields of view (AFOV), were conducted. The five PET series consisted of two 20 s × 5 AFOV, three 40 s × 5 AFOV, three 80 s × 5 AFOV, three 160 s × 5 AFOV, and eight 240 s × 5 AFOV. The total duration of the whole-body PET measurement was around 4 h. PET images were reconstructed with a 3D ordered-subset expectation maximization (OSEM) algorithm with three iterations and 18 subsets, including the time-of-flight information (VUE Point FX) and the point spread function correction (Sharp IR). A 2D Gaussian filter with 5.5 mm cutoff was used.
ROIs were drawn for the brain, heart, liver, lung, kidney, gall bladder, bone (lumbar vertebrae), urinary bladder, stomach, small intestine, spleen, and pancreas with the help of the CT images for anatomic landmarks. The time–activity curve was expressed as the percentage of the injected dose (%ID) calculated as follows: decay-corrected radioactivity (Bq/cc) × ROI volume (cc)/injected dose (Bq) × 100.
Estimates of the absorbed radiation dose in humans were calculated with OLINDA/EXM 1.1 (Organ Level INternal Dose Assessment Code) software, using the adult male (70 kg) reference model.[36] The fractional uptake in NHP organs was assumed to be equal to the uptake in human organs.

[3] = test system: monoamine oxidase-B (MAO-B); set-up: method as in PMID 23541825; conditions: NHP brain; cited from earlier work
[4] = Radiometabolite analysis of plasma by radio-HPLC during PET; assay type: in vivo, cynomolgus monkey
Method: An automated blood sampling system (ABSS) was used to measure the continuous radioactivity for the first 3 min after the radioligand injection. Then, blood sampling was performed manually for the measurement of metabolism and radioactivity at 5, 15, 30, 60, 90, and 120 min after the injection. A reversed-phase radio-HPLC method was used to determine the amount of unchanged ^18F-AZD9272 and its radioactive metabolites in NHP plasma.[35]

SMILES: N#Cc1cc(F)cc(-c2nc(-c3ccc([18F])cn3)no2)c1 [^18F-AZD9272, 3-fluoro-5-(3-(5-[^18F]fluoropyridin-2-yl)-1,2,4-oxadiazol-5-yl)benzonitrile]
- Radiochemical purity after storage (stability) ([1]; 2 h after formulation in sterile phosphate buffered solution (pH = 7.4)): > 99%
- Stability in PBS buffered solution ([1]; pH = 7.4, duration of 120 min): stable
- Estimated radiation dose ([2]; LLI wall, NHP3): 26.8 μSv/MBq
- Estimated radiation dose ([2]; LLI wall, NHP4): 27.9 μSv/MBq
- Estimated radiation dose ([2]; LLI wall, mean): 27.4 μSv/MBq
- Whole body organ uptake (PET) ([2]; NHP whole body): High uptakes were seen in liver and small intestine, followed by brain and kidney
- Estimated radiation dose ([2]; ULI wall, NHP3): 65.7 μSv/MBq
- Estimated radiation dose ([2]; ULI wall, NHP4): 69.4 μSv/MBq
- Estimated radiation dose ([2]; ULI wall, mean): 67.6 μSv/MBq
- Estimated radiation dose ([2]; adrenals, NHP3): 14.6 μSv/MBq
- Estimated radiation dose ([2]; adrenals, NHP4): 14.1 μSv/MBq
- Estimated radiation dose ([2]; adrenals, mean): 14.4 μSv/MBq
- Estimated radiation dose ([2]; brain, NHP3): 13.0 μSv/MBq
- Estimated radiation dose ([2]; brain, NHP4): 17.4 μSv/MBq
- Estimated radiation dose ([2]; brain, mean): 15.2 μSv/MBq
- Estimated radiation dose ([2]; breasts, NHP3): 8.0 μSv/MBq
- Estimated radiation dose ([2]; breasts, NHP4): 7.9 μSv/MBq
- Estimated radiation dose ([2]; breasts, mean): 7.9 μSv/MBq
- Estimated radiation dose ([2]; effective dose, NHP3): 17.4 μSv/MBq
- Estimated radiation dose ([2]; effective dose, NHP4): 17.4 μSv/MBq
- Estimated radiation dose ([2]; effective dose, mean): 17.4 μSv/MBq
- Estimated radiation dose ([2]; gallbladder wall, NHP3): 21.3 μSv/MBq
- Estimated radiation dose ([2]; gallbladder wall, NHP4): 21.1 μSv/MBq
- Estimated radiation dose ([2]; gallbladder wall, mean): 21.2 μSv/MBq
- Estimated radiation dose ([2]; heart wall, NHP3): 17.5 μSv/MBq
- Estimated radiation dose ([2]; heart wall, NHP4): 19.0 μSv/MBq
- Estimated radiation dose ([2]; heart wall, mean): 18.3 μSv/MBq
- Human radiation dose estimate, upper large intestine (ULI) wall ([2]; highest-dose organ): around 0.068 mSv/MBq
- Radioactivity that can be injected to humans ([2]; if the limit is 10 mSv for the total radiation exposure): 570 MBq
- Estimated radiation dose ([2]; kidneys, NHP3): 42.3 μSv/MBq
- Estimated radiation dose ([2]; kidneys, NHP4): 29.6 μSv/MBq
- Estimated radiation dose ([2]; kidneys, mean): 36.0 μSv/MBq
- Estimated radiation dose ([2]; liver, NHP3): 47.0 μSv/MBq
- Estimated radiation dose ([2]; liver, NHP4): 45.7 μSv/MBq
- Estimated radiation dose ([2]; liver, mean): 46.4 μSv/MBq
- Estimated radiation dose ([2]; lungs, NHP3): 12.7 μSv/MBq
- Estimated radiation dose ([2]; lungs, NHP4): 11.8 μSv/MBq
- Estimated radiation dose ([2]; lungs, mean): 12.3 μSv/MBq
- Human radiation dose estimate, most organs ([2]; most organs): 0.01–0.02 mSv/MBq
- Estimated radiation dose ([2]; muscle, NHP3): 10.1 μSv/MBq
- Estimated radiation dose ([2]; muscle, NHP4): 10.0 μSv/MBq
- Estimated radiation dose ([2]; muscle, mean): 10.1 μSv/MBq
- Estimated radiation dose ([2]; osteogenic cells, NHP3): 14.5 μSv/MBq
- Estimated radiation dose ([2]; osteogenic cells, NHP4): 14.5 μSv/MBq
- Estimated radiation dose ([2]; osteogenic cells, mean): 14.5 μSv/MBq
- Estimated radiation dose ([2]; ovaries, NHP3): 18.2 μSv/MBq
- Estimated radiation dose ([2]; ovaries, NHP4): 18.6 μSv/MBq
- Estimated radiation dose ([2]; ovaries, mean): 18.4 μSv/MBq
- Estimated radiation dose ([2]; pancreas, NHP3): 16.4 μSv/MBq
- Estimated radiation dose ([2]; pancreas, NHP4): 15.4 μSv/MBq
- Estimated radiation dose ([2]; pancreas, mean): 15.9 μSv/MBq
- Estimated radiation dose ([2]; red marrow, NHP3): 10.7 μSv/MBq
- Estimated radiation dose ([2]; red marrow, NHP4): 10.7 μSv/MBq
- Estimated radiation dose ([2]; red marrow, mean): 10.7 μSv/MBq
- Estimated radiation dose ([2]; skin, NHP3): 7.4 μSv/MBq
- Estimated radiation dose ([2]; skin, NHP4): 7.4 μSv/MBq
- Estimated radiation dose ([2]; skin, mean): 7.4 μSv/MBq
- Estimated radiation dose ([2]; small intestine, NHP3): 58.9 μSv/MBq
- Estimated radiation dose ([2]; small intestine, NHP4): 62.1 μSv/MBq
- Estimated radiation dose ([2]; small intestine, mean): 60.5 μSv/MBq
- Estimated radiation dose ([2]; spleen, NHP3): 9.6 μSv/MBq
- Estimated radiation dose ([2]; spleen, NHP4): 8.4 μSv/MBq
- Estimated radiation dose ([2]; spleen, mean): 9.0 μSv/MBq
- Estimated radiation dose ([2]; stomach wall, NHP3): 13.2 μSv/MBq
- Estimated radiation dose ([2]; stomach wall, NHP4): 13.1 μSv/MBq
- Estimated radiation dose ([2]; stomach wall, mean): 13.2 μSv/MBq
- Estimated radiation dose ([2]; testes, NHP3): 8.7 μSv/MBq
- Estimated radiation dose ([2]; testes, NHP4): 8.6 μSv/MBq
- Estimated radiation dose ([2]; testes, mean): 8.7 μSv/MBq
- Estimated radiation dose ([2]; thymus, NHP3): 9.7 μSv/MBq
- Estimated radiation dose ([2]; thymus, NHP4): 9.6 μSv/MBq
- Estimated radiation dose ([2]; thymus, mean): 9.6 μSv/MBq
- Estimated radiation dose ([2]; thyroid, NHP3): 9.1 μSv/MBq
- Estimated radiation dose ([2]; thyroid, NHP4): 9.1 μSv/MBq
- Estimated radiation dose ([2]; thyroid, mean): 9.1 μSv/MBq
- Estimated radiation dose ([2]; total body, NHP3): 12.2 μSv/MBq
- Estimated radiation dose ([2]; total body, NHP4): 12.1 μSv/MBq
- Estimated radiation dose ([2]; total body, mean): 12.2 μSv/MBq
- Estimated radiation dose ([2]; urinary bladder wall, NHP3): 11.3 μSv/MBq
- Estimated radiation dose ([2]; urinary bladder wall, NHP4): 11.4 μSv/MBq
- Estimated radiation dose ([2]; urinary bladder wall, mean): 11.4 μSv/MBq
- Estimated radiation dose ([2]; uterus, NHP3): 16.1 μSv/MBq
- Estimated radiation dose ([2]; uterus, NHP4): 16.3 μSv/MBq
- Estimated radiation dose ([2]; uterus, mean): 16.2 μSv/MBq
- Specific binding inhibited by administration of a MAO-B-selective ligand [3]: approximately 90%
- Parent compound in plasma ([4]; 5 min after injection): approximately 95%
- Percentage of parent radioligand in plasma ([4]; 120 min after injection, individual animals (n = 2)): 59% and 64%
